The values that follow come from patent US20250352550A1, “SUBSTITUTED FUROPYRIDINES FOR THERAPEUTIC USE” (MASARYKOVA UNIVERZITA, priority 2022, published 2025).

For orientation: IC50 means the concentration that inhibits the measured activity by half. Low readings indicate greater potency, high ones weaker potency.

Holding throughout (assay type): biochemical
In one experiment the target is T1, DDR1 (Homo sapiens, UniProt Q08345).
T1 construct: purchased Reaction Biology
The experiment in a line: HotSpot radiometric kinase assay (Reaction Biology), DDR1. The following applies: 200 nM kinase, substrate IRS1tide 20 μM, 33P-ATP, 120 minutes at room temperature. The essentials:
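Radiometric filter-binding assay: kinase and substrate in 20 mM HEPES pH 7.5, 10 mM MgCl2, 1 mM EGTA, 2 mM DTT, 1% DMSO. Reaction started with ^33P-ATP (0.01 μCi/μL final), run 120 minutes at room temperature. Activity expressed as percent of DMSO control; IC50 from curve fits.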

The target of a further experiment is T2, KHS/MAP4K5 (Homo sapiens, UniProt Q9Y4K4).
T2 construct: purchased Reaction Biology
The experiment in a line: HotSpot radiometric kinase assay (Reaction Biology), KHS/MAP4K5. The following applies: 1.5 nM kinase, substrate MBP 20 μM, 33P-ATP, 120 minutes at room temperature. The procedure:
The compounds were profiled in the HotSpot radiometric assays (Reaction Biology).
Briefly, • 1. Substrate indicated in Table 1 was dissolved in freshly prepared reaction buffer (20 mM HEPES (pH 7.5), 10 mM MgCl2, 1 mM EGTA, 0.01% Brij35, 0.02 mg/ml BSA, 0.1 mM Na3VO4, 2 mM DTT, 1% DMSO) at the concentration indicated in Table 1. • 2. Corresponding kinase (concentration indicated in Table 1) was added and the mixture was gently mixed. • 3. Tested compound dissolved in DMSO was added into the kinase reaction mixture. • 4. ^33P-ATP (specific activity 0.01 μCi/μL final) was added into the reaction mixture to initiate the reaction. • 5. The kinase reaction was incubated for 120 minutes at room temperature. • 6. Reaction mixture was spotted onto P81 ion exchange paper (Whatman K 3698-915). • 7. The filters were extensively washed with […]. • 7. The radioactive phosphorylated substrate remaining on the filter paper was measured.
Kinase activity data were expressed as the percent remaining kinase activity in tested samples compared to the vehicle (DMSO) reactions. IC50 values and curve fits were obtained using Prism4 Software (GraphPad).
Table 2 summarizes the inhibitory activities of indicated compounds tested in the in vitro kinase assays described above.

For a further experiment, the target named is T3, FLT3 (Homo sapiens, UniProt P36888).
T3 construct: purchased Reaction Biology
T3 sequence (P36888 27-993): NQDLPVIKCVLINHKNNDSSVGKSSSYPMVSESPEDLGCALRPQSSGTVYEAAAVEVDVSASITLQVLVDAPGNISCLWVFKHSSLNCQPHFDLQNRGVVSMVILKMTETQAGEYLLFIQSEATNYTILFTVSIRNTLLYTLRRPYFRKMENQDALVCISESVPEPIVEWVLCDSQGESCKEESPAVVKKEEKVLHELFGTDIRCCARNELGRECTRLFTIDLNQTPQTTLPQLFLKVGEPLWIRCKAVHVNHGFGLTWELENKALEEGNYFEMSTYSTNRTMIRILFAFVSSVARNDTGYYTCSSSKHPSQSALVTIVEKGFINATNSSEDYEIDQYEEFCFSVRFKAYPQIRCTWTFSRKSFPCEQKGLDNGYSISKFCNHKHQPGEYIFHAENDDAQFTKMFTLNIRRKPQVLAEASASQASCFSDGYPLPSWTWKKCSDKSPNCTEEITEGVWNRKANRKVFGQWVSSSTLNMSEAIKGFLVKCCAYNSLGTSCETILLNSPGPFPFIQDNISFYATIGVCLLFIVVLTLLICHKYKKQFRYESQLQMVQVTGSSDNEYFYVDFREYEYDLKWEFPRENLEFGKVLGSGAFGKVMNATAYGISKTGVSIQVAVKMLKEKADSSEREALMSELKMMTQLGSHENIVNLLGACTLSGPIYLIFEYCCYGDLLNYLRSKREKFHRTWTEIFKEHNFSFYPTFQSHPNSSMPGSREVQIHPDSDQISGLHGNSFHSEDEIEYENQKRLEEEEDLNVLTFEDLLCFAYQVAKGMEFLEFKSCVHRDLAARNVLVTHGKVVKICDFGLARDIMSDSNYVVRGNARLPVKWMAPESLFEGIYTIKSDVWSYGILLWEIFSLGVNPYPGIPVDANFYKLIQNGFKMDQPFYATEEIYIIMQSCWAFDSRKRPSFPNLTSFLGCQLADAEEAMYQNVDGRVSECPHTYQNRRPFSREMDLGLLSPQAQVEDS
The experiment in a line: HotSpot radiometric kinase assay (Reaction Biology), FLT3. The following applies: 4 nM kinase, substrate ABLtide 20 μM, 33P-ATP, 120 minutes at room temperature. The essentials:
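Radiometric filter-binding assay with kinase and substrate in HEPES pH 7.5 buffer containing MgCl2, EGTA, Brij35, BSA, Na3VO4, DTT and 1% DMSO, started with ^33P-ATP and run 120 min at room temperature. Phosphorylated substrate on P81 paper counted; activity expressed as % of DMSO control, IC50 from curve fits.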

T1 sequence (Q08345 19-913): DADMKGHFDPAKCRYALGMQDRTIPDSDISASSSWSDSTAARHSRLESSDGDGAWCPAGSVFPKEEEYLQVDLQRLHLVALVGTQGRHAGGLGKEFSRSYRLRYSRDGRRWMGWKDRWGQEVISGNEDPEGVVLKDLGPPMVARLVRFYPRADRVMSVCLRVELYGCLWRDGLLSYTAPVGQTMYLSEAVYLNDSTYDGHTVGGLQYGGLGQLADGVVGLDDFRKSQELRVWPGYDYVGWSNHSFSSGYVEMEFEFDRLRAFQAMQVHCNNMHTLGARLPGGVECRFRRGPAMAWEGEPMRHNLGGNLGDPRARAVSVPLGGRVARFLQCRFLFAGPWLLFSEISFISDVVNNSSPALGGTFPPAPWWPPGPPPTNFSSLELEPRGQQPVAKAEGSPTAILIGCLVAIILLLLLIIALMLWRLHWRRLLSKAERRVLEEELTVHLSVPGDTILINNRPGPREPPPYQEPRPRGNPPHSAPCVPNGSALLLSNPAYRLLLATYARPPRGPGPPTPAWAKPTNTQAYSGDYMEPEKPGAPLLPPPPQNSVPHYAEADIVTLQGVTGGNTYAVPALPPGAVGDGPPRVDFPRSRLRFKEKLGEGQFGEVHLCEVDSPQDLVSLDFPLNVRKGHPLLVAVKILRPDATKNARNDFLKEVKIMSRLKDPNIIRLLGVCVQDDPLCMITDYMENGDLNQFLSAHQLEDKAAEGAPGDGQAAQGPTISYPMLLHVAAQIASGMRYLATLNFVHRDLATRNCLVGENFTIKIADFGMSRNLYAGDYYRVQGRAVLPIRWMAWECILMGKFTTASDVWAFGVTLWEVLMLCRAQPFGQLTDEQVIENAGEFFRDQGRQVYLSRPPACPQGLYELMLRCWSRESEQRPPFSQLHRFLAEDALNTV
T2 sequence (Q9Y4K4 whole entry): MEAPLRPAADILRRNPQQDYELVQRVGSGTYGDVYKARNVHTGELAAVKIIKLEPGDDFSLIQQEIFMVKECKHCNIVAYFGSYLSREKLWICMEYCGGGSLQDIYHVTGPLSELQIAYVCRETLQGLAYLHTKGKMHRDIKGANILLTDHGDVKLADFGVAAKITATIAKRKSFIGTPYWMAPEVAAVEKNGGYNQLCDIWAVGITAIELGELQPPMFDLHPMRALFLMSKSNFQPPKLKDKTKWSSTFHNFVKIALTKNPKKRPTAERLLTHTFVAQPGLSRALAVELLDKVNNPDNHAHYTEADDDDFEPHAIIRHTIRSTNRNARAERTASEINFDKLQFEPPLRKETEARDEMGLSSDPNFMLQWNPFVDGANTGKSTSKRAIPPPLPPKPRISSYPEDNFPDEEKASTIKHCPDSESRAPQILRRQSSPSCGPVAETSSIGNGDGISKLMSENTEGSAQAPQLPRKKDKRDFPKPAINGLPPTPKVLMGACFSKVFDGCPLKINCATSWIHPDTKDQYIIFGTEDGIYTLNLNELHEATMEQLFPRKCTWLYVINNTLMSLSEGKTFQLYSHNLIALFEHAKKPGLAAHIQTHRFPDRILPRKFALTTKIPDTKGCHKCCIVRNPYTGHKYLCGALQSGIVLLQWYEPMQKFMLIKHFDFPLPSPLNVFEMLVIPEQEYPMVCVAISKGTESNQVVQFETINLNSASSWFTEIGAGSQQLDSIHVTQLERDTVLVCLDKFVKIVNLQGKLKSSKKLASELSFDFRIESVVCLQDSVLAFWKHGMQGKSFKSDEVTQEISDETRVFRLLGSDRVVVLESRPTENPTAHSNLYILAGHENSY

In the case of `NCc1cccc(-c2coc3cc(-c4ccc(N5CCNCC5)cc4)cnc23)c1` [Preparative Example 87, (3-(6-(4-(piperazin-1-yl)phenyl)furo[3,2-b]pyridin-3-yl)phenyl)methanamine], the results for the IC50 against DDR1, at KHS/MAP4K5 and on FLT3 were 301 nM, 456 nM and 62 nM, respectively.

`COc1cccc(-c2coc3cc(-c4ccc(N5CCNCC5)cc4)cnc23)c1` [Preparative Example 14, 3-(3-methoxyphenyl)-6-(4-(piperazin-1-yl)phenyl)furo[3,2-b]pyridine]: the figures for the 50% inhibitory concentration (IC50) at DDR1, on KHS/MAP4K5 and against FLT3 were 116 nM, 906 nM and 49 nM, respectively.

Take `CC(=O)OCc1cccc(-c2coc3cc(-c4ccc(N5CCN(C)CC5)cc4)cnc23)c1` [Preparative Example 94, 3-(6-(4-(4-methylpiperazin-1-yl)phenyl)furo[3,2-b]pyridin-3-yl)benzyl acetate]: the IC50 at DDR1 is 155 nM; against KHS/MAP4K5, 641 nM; on FLT3, 77 nM.

On to `c1cc(SC2CCC2)cc(-c2coc3cc(-c4ccc(N5CCNCC5)cc4)cnc23)c1` [Preparative Example 164, 3-(3-(cyclobutylthio)phenyl)-6-(4-(piperazin-1-yl)phenyl)furo[3,2-b]pyridine], for which the concentration for half-maximal inhibition (IC50) worked out at 361 nM against DDR1, 737 nM at KHS/MAP4K5 and 151 nM against FLT3.

For `Cn1cc(-c2coc3cc(-c4ccc(N5CCNCC5)cc4)cnc23)cn1` [Preparative Example 34, 3-(1-methyl-1H-pyrazol-4-yl)-6-(4-(piperazin-1-yl)phenyl)furo[3,2-b]pyridine], the results for the half-inhibitory concentration (IC50) at DDR1, against KHS/MAP4K5 and at FLT3 were 64 nM, 433 nM and 100 nM, respectively.

`CN(C)C(=O)c1cccc(-c2coc3cc(-c4ccc(N5CCNCC5)cc4)cnc23)c1` [Preparative Example 54, N,N-dimethyl-3-(6-(4-(piperazin-1-yl)phenyl)furo[3,2-b]pyridin-3-yl)benzamide]: the figures for the half-inhibitory concentration (IC50) at DDR1, on KHS/MAP4K5 and at FLT3 were 301 nM, 538 nM and 207 nM, respectively.

Take `CC(c1ccccc1)c1coc2cc(-c3ccc(N4CCN(C)CC4)cc3)cnc12` (racemic) [Preparative Example 203, 1-methyl-4-{4-[3-(1-phenylethyl)furo[3,2-b]pyridin-6-yl]phenyl}piperazine]: the IC50 worked out at 808 nM on DDR1 and 804 nM against KHS/MAP4K5.

For `CN1CCN(c2ccc(-c3cnc4c(-c5cccc(CO)c5)coc4c3)cc2)CC1` [Preparative Example 90, (3-(6-(4-(4-methylpiperazin-1-yl)phenyl)furo[3,2-b]pyridin-3-yl)phenyl)methanol], the concentration for half-maximal inhibition (IC50) against DDR1 is 163 nM; against KHS/MAP4K5 it was 394 nM; at FLT3, 24 nM.

Regarding `Fc1cccc(-c2coc3cc(-c4ccc(N5CCNCC5)cc4)cnc23)c1` [Preparative Example 170, 3-(3-fluorophenyl)-6-(4-(piperazin-1-yl)phenyl)furo[3,2-b]pyridine], the results for the concentration for half-maximal inhibition (IC50) on DDR1, against KHS/MAP4K5 and against FLT3 were 120 nM, 889 nM and 31 nM, respectively.

As to `CN1CCN(c2ccc(-c3cnc4c(Oc5ccccc5)coc4c3)cc2)CC1` [Preparative Example 229, 1-methyl-4-(4-{3-phenoxyfuro[3,2-b]pyridin-6-yl}phenyl)piperazine], the results for the concentration for half-maximal inhibition (IC50) against DDR1, against KHS/MAP4K5 and on FLT3 were 308 nM, 284 nM and 729 nM, respectively.

As to `CNc1cccc(-c2coc3cc(-c4ccc(N5CCN(C)CC5)cc4)cnc23)c1` [Preparative Example 110, N-methyl-3-(6-(4-(4-methylpiperazin-1-yl)phenyl)furo[3,2-b]pyridin-3-yl)aniline], the IC50 against DDR1 came out at 187 nM; against KHS/MAP4K5 it was 934 nM; at FLT3 it was 53 nM.

Regarding `CN(C)S(=O)(=O)c1cccc(-c2coc3cc(-c4ccc(N5CCNCC5)cc4)cnc23)c1` [Preparative Example 61, N,N-dimethyl-3-(6-(4-(piperazin-1-yl)phenyl)furo[3,2-b]pyridin-3-yl)benzenesulfonamide], the figures for the IC50 at DDR1, on KHS/MAP4K5 and against FLT3 were 272 nM, 896 nM and 73 nM, respectively.

Consider `CN1CCN(c2ccc(-c3cnc4c(-c5cc(C(N)=O)ccc5F)coc4c3)cc2)CC1` [Preparative Example 211, 4-fluoro-3-(6-(4-(4-methylpiperazin-1-yl)phenyl)furo[3,2-b]pyridin-3-yl)benzamide], for which the IC50 is 528 nM against DDR1, 167 nM against KHS/MAP4K5 and 21 nM at FLT3.

`CN1CCN(c2ccc(-c3cnc4c(-c5cc(F)cc(C(N)=O)c5)coc4c3)cc2)CC1` [Preparative Example 219, 3-fluoro-5-{6-[4-(4-methylpiperazin-1-yl)phenyl]furo[3,2-b]pyridin-3-yl}benzamide]: the IC50 against DDR1 worked out at 27 nM; on KHS/MAP4K5, 756 nM; on FLT3, 56 nM.

As for `Fc1ccc(-c2coc3cc(-c4ccc(N5CCNCC5)cc4)cnc23)cc1` [Preparative Example 51, 3-(4-fluorophenyl)-6-(4-(piperazin-1-yl)phenyl)furo[3,2-b]pyridine], the half-inhibitory concentration (IC50) against DDR1 came to 42 nM; against KHS/MAP4K5 it was 675 nM; at FLT3, 20 nM.
